Test results: patent US10654895B2, “Polypeptide, DNA molecule encoding the polypeptide, vector, preparation method and use” (WUHAN MORE BIOTECHNOLOGY CO., LTD., priority 2013, dated 2020)
Several values for one entry are separate records, joined by “and”; a condition that tells them apart may be missing. Identical values can stand only once. Like-named read-outs stand apart in the source and are kept apart here. No end group written: not given here.

Columns and labels:
[1] = test system: Clostridium tetani; format: cell-based
[2] = test system: Clostridium perfringens; format: cell-based
[3] = test system: Bacteroides fragilis; test: Bacteriostasis experiment on anaerobic bacterium, 96-well plate MIC; format: cell-based
[4] = test system: M. tuberculosis; test: MIC test by the third party; format: cell-based, Mycobacterium tuberculosis
[5] = test system: Escherichia coli
[6] = test system: Staphylococcus aureus
[7] = test system: Methicillin-resistant Staphylococcus aureus (MRSA)
[8] = test system: methicillin-resistant coagulase-negative staphylococci (MRSCNS)
[9] = test system: methicillin-sensitive coagulase-negative staphylococci (MSSCNS)
[10] = test system: S. pneumoniae
[11] = test system: S. agalactiae
[12] = test system: Streptococcus hemolyticus / S. pyogenes (β-hemolytic streptococcus); settings: for Minimum inhibitory concentration MIC: test by the third party
[13] = test system: E. faecium
[14] = test system: E. faecalis
[15] = test system: Enterococcus
[16] = test system: Neisseria meningitidis; settings: N. meningitidis
[17] = test system: Neisseria gonorrhoeae; settings: N. gonorrhoeae
[18] = test system: Shigella dysentery (dysentery bacilli)
[19] = test system: Salmonella typhimurium
[20] = test system: Klebsiella pneumoniae; settings: K. pneumoniae
[21] = test system: K. oxytoca
[22] = test system: Citrobacter
[23] = test system: E. cloacae
[24] = test system: Serratia fonticola; settings: S. fonticola
[25] = test system: Corynebacterium diphtheriae; settings: C. diphtheriae
[26] = test system: Corynebacterium acnes; settings: C. acnes
[27] = test system: Pseudomonas aeruginosa
[28] = test system: Acinetobacter baumannii; settings: A. baumannii (clinically isolated strain, 2 strains in Table 3)
[29] = test system: Bordetella pertussis; settings: B. pertussis
[30] = test system: Haemophilus influenza; settings: H. influenzae
[31] = test system: Proteusbacillus vulgaris

FIRIARLLRIF [Ctryamp, FIRIARLLRIF]
Minimum inhibitory concentration MIC [1]: 25 µg/mL | Minimum inhibitory concentration MIC [2]: 25 µg/mL | Minimum inhibitory concentration MIC [3]: 12.5 µg/mL | Minimum inhibitory concentration MIC [4]: 25 µg/mL | Minimum inhibitory concentration MIC ([5]; ATCC25922 (non-ESBLs-producing), test by the third party): 4 µg/mL | Minimum inhibitory concentration MIC ([5]; ATCC35218 (ESBLs-producing), test by the third party): 4 µg/mL | Minimum inhibitory concentration MIC ([5]; E. coli ATCC25922 (standard strain)): 6.25 µg/mL | Minimum inhibitory concentration MIC ([5]; E. coli clinically isolated strain, 8 strains): 6.25 to 12.5 µg/mL | Minimum inhibitory concentration MIC ([5]; ESBLs-producing E. coli, 10 strains, test by the third party): 4 to 8 µg/mL | Minimum inhibitory concentration MIC ([5]; Escherichia coli, strain not specified (Table 8)): 6.25 to 12.5 µg/mL and 6.25 µg/mL | inhibition rate ([5]; at 6.25 μg/mL, Escherichia coli CCTCCAB94012): 100% | Minimum inhibitory concentration MIC ([5]; non-ESBLs-producing E. coli, 4 strains, test by the third party): 4 to 8 µg/mL | Minimum inhibitory concentration MIC ([5]; standard Escherichia coli (Table 2)): 12.5 µg/mL | Minimum inhibitory concentration MIC ([6]; S. aureus ATCC 29213, test by the third party): 8 µg/mL | Minimum inhibitory concentration MIC ([6]; S. aureus clinically isolated strain, 17 strains): 1.63 to 6.25 µg/mL | Minimum inhibitory concentration MIC ([6]; S. aureus standard strain ATCC25923): 6.25 µg/mL | inhibition rate ([6]; at 6.25 μg/mL, Staphylococcus aureus CCTCCAB94004): 100% | Minimum inhibitory concentration MIC ([6]; standard Staphylococcus aureus (Table 2)): 6.25 µg/mL | Minimum inhibitory concentration MIC ([7]; MRSA, 5 strains): 3.13 to 12.5 µg/mL | Minimum inhibitory concentration MIC ([7]; MRSA, 11 strains, test by the third party): 4 to 8 µg/mL | Minimum inhibitory concentration MIC ([7]; Methicillin-resistant Staphylococcus aureus (Table 8)): 6.25 µg/mL | Minimum inhibitory concentration MIC ([8]; 11 strains, test by the third party): 4 µg/mL | Minimum inhibitory concentration ([8]; stated jointly with MRSA, 4-8 = test results from the third party): 3.13 to 12.5 µg/mL and 4 to 8 µg/mL | Minimum inhibitory concentration MIC ([9]; MSSCNS, 5 strains, test by the third party): 4 µg/mL | MIC ([9]; methicillin-sensitive coagulase-negative staphylococci): 3.13 to 12.5 µg/mL | Minimum inhibitory concentration MIC [10]: 3.13 µg/mL | Minimum inhibitory concentration MIC [11]: 25 µg/mL | Minimum inhibitory concentration MIC ([12]; Erythromycin-resistant S. pyogenes, 11 strains): 8 to 16 µg/mL | Minimum inhibitory concentration MIC ([12]; Erythromycin-sensitive S. pyogenes, 4 strains): 16 µg/mL | Minimum inhibitory concentration MIC ([12]; Streptococcus ATCC 19615 (standard strain)): 8 µg/mL | MIC ([12]; Streptococcus hemolyticus): 8 to 16 µg/mL | Minimum inhibitory concentration MIC [13]: 25 µg/mL | Minimum inhibitory concentration MIC [14]: 50 µg/mL | MIC [15]: 6.25 µg/mL | Minimum inhibitory concentration MIC [16]: 6.25 µg/mL | Minimum inhibitory concentration MIC [17]: 6.25 µg/mL | Minimum inhibitory concentration MIC [18]: 6.25 µg/mL and 6.5 µg/mL | Minimum inhibitory concentration MIC [19]: 12.5 µg/mL | Minimum inhibitory concentration MIC [20]: 25 µg/mL | Minimum inhibitory concentration MIC [21]: 12.5 µg/mL | Minimum inhibitory concentration MIC [22]: 12.5 µg/mL | Minimum inhibitory concentration MIC [23]: 12.5 µg/mL | Minimum inhibitory concentration MIC [24]: 12.5 µg/mL | Minimum inhibitory concentration MIC [25]: 3.13 µg/mL | Minimum inhibitory concentration MIC [26]: 3.13 µg/mL | Minimum inhibitory concentration MIC ([27]; P. aeruginosa ATCC27853 (standard strain), test by the third party): 8 µg/mL | Minimum inhibitory concentration MIC ([27]; P. aeruginosa IPM-R strain, 8 strains, test by the third party): 8 to 16 µg/mL | Minimum inhibitory concentration MIC ([27]; P. aeruginosa IPM-S strain, 4 strains, test by the third party): 8 to 16 µg/mL | Minimum inhibitory concentration MIC ([27]; Pseudomonas aeruginosa, strain not specified (Table 8)): 8 µg/mL | Minimum inhibitory concentration MIC [28]: 12.5 µg/mL | Minimum inhibitory concentration MIC [29]: 3.13 µg/mL | Minimum inhibitory concentration MIC [30]: 3.13 µg/mL | MIC [31]: 6.25 µg/mL
